Assay results taken from ChEMBL document CHEMBL1154382, “Preliminary SAR analysis of novel antiproliferative N(6),5'-bis-ureidoadenosine derivatives” (2009).

Assays:
Assay type in all cases: functional
Settings in all cases: values are per cent of control
[1] = tested on: SK-MEL-5; assay: Antiproliferative activity against human SK-MEL-5 cells at 10 uM assessed as cell growth inhibition relative to control
[2] = tested on: EKVX; assay: Antiproliferative activity against human EKVX cells at 10 uM assessed as cell growth inhibition relative to control
[3] = tested on: HOP-62; assay: Antiproliferative activity against human HOP62 cells at 10 uM assessed as cell growth inhibition relative to control
[4] = tested on: PC-3; assay: Antiproliferative activity against human PC3 cells at 10 uM assessed as cell growth inhibition relative to control
[5] = tested on: SK-OV-3; assay: Antiproliferative activity against human SKOV3 cells at 10 uM assessed as cell growth inhibition relative to control
[6] = tested on: HL-60(TB); assay: Antiproliferative activity against human HL-60(TB) cells at 10 uM assessed as cell growth inhibition relative to control
[7] = tested on: HCC 2998; assay: Antiproliferative activity against human HCC2998 cells at 10 uM assessed as cell growth inhibition relative to control
[8] = tested on: OVCAR-3; assay: Antiproliferative activity against human OVCAR-3 cells at 10 uM assessed as cell growth inhibition relative to control
[9] = tested on: ACHN; assay: Antiproliferative activity against human ACHN cells at 10 uM assessed as cell growth inhibition relative to control
[10] = tested on: KM12; assay: Antiproliferative activity against human KM12 cells at 10 uM assessed as cell growth inhibition relative to control
[11] = tested on: A549; assay: Antiproliferative activity against human A549 cells at 10 uM assessed as cell growth inhibition relative to control
[12] = Antiproliferative activity against human Hs 578T cells at 10 uM assessed as cell growth inhibition relative to control
[13] = tested on: MOLT-4; assay: Antiproliferative activity against human MOLT4 cells at 10 uM assessed as cell growth inhibition relative to control
[14] = tested on: SF-268; assay: Antiproliferative activity against human SF268 cells at 10 uM assessed as cell growth inhibition relative to control
[15] = tested on: BT-549; assay: Antiproliferative activity against human BT549 cells at 10 uM assessed as cell growth inhibition relative to control
[16] = tested on: T47D; assay: Antiproliferative activity against human T47D cells at 10 uM assessed as cell growth inhibition relative to control
[17] = tested on: SW-620; assay: Antiproliferative activity against human SW620 cells at 10 uM assessed as cell growth inhibition relative to control
[18] = tested on: DU-145; assay: Antiproliferative activity against human DU145 cells at 10 uM assessed as cell growth inhibition relative to control
[19] = tested on: U-251; assay: Antiproliferative activity against human U251 cells at 10 uM assessed as cell growth inhibition relative to control
[20] = tested on: OVCAR-5; assay: Antiproliferative activity against human OVCAR5 cells at 10 uM assessed as cell growth inhibition relative to control
[21] = tested on: LOX IMVI; assay: Antiproliferative activity against human LOXIMVI cells at 10 uM assessed as cell growth inhibition relative to control
[22] = tested on: CCRF-CEM; assay: Antiproliferative activity against human CCRF-CEM cells at 10 uM assessed as cell growth inhibition relative to control
[23] = tested on: OVCAR-4; assay: Antiproliferative activity against human OVCAR4 cells at 10 uM assessed as cell growth inhibition relative to control
[24] = tested on: MDA-MB-231; assay: Antiproliferative activity against human MDA-MB-231 cells at 10 uM assessed as cell growth inhibition relative to control
[25] = tested on: Malme-3M; assay: Antiproliferative activity against human MALME-3M cells at 10 uM assessed as cell growth inhibition relative to control
[26] = tested on: TK-10; assay: Antiproliferative activity against human TK10 cells at 10 uM assessed as cell growth inhibition relative to control
[27] = tested on: HOP-92; assay: Antiproliferative activity against human HOP92 cells at 10 uM assessed as cell growth inhibition relative to control
[28] = tested on: NCI-H226; assay: Antiproliferative activity against human NCI-H226 cells at 10 uM assessed as cell growth inhibition relative to control
[29] = tested on: HT-29; assay: Antiproliferative activity against human HT-29 cells at 10 uM assessed as cell growth inhibition relative to control
[30] = tested on: SNB-19; assay: Antiproliferative activity against human SNB19 cells at 10 uM assessed as cell growth inhibition relative to control
[31] = tested on: OVCAR-8; assay: Antiproliferative activity against human OVCAR8 cells at 10 uM assessed as cell growth inhibition relative to control
[32] = tested on: NCI-H460; assay: Antiproliferative activity against human NCI-H460 cells at 10 uM assessed as cell growth inhibition relative to control
[33] = tested on: SK-MEL-2; assay: Antiproliferative activity against human SK-MEL-2 cells at 10 uM assessed as cell growth inhibition relative to control
[34] = tested on: SNB-75; assay: Antiproliferative activity against human SNB75 cells at 10 uM assessed as cell growth inhibition relative to control
[35] = tested on: 786-0; assay: Antiproliferative activity against human 786-0 cells at 10 uM assessed as cell growth inhibition relative to control
[36] = tested on: NCI-H522; assay: Antiproliferative activity against human NCI-H522 cells at 10 uM assessed as cell growth inhibition relative to control
[37] = tested on: SF-539; assay: Antiproliferative activity against human SF539 cells at 10 uM assessed as cell growth inhibition relative to control
[38] = tested on: UACC-257; assay: Antiproliferative activity against human UACC257 cells at 10 uM assessed as cell growth inhibition relative to control
[39] = tested on: K562; assay: Antiproliferative activity against human K562 cells at 10 uM assessed as cell growth inhibition relative to control
[40] = Antiproliferative activity against human […] cells at 10 uM assessed as cell growth inhibition relative to control
[41] = tested on: MDA-MB-468; assay: Antiproliferative activity against human MDA-MB-468 cells at 10 uM assessed as cell growth inhibition relative to control
[42] = tested on: UO-31; assay: Antiproliferative activity against human UO31 cells at 10 uM assessed as cell growth inhibition relative to control
[43] = tested on: SN12C; assay: Antiproliferative activity against human SN12C cells at 10 uM assessed as cell growth inhibition relative to control
[44] = tested on: HCT-116; assay: Antiproliferative activity against human HCT116 cells at 10 uM assessed as cell growth inhibition relative to control
[45] = tested on: NCI-H23; assay: Antiproliferative activity against human NCI-H23 cells at 10 uM assessed as cell growth inhibition relative to control
[46] = tested on: HCT-15; assay: Antiproliferative activity against human HCT15 cells at 10 uM assessed as cell growth inhibition relative to control
[47] = tested on: A498; assay: Antiproliferative activity against human A498 cells at 10 uM assessed as cell growth inhibition relative to control
[48] = tested on: RXF 393; assay: Antiproliferative activity against human RXF393 cells at 10 uM assessed as cell growth inhibition relative to control
[49] = tested on: SK-MEL-28; assay: Antiproliferative activity against human SK-MEL-28 cells at 10 uM assessed as cell growth inhibition relative to control
[50] = tested on: SF-295; assay: Antiproliferative activity against human SF295 cells at 10 uM assessed as cell growth inhibition relative to control
[51] = tested on: IGROV-1; assay: Antiproliferative activity against human IGROV1 cells at 10 uM assessed as cell growth inhibition relative to control
[52] = tested on: UACC-62; assay: Antiproliferative activity against human UACC62 cells at 10 uM assessed as cell growth inhibition relative to control
[53] = tested on: M14; assay: Antiproliferative activity against human M14 cells at 10 uM assessed as cell growth inhibition relative to control
[54] = tested on: MCF7; assay: Antiproliferative activity against human MCF7 cells at 10 uM assessed as cell growth inhibition relative to control
[55] = tested on: COLO 205; assay: Antiproliferative activity against human COLO205 cells at 10 uM assessed as cell growth inhibition relative to control
[56] = tested on: NCI-H322M; assay: Antiproliferative activity against human NCI-H322M cells at 10 uM assessed as cell growth inhibition relative to control
[57] = tested on: CAKI-1; assay: Antiproliferative activity against human Caki1 cells at 10 uM assessed as cell growth inhibition relative to control

Work on CCOC(=O)C[C@H]1[C@@H](O[Si](C)(C)C(C)(C)C)[C@H](n2cnc3c(N)ncnc32)O[C@@H]1CNC(=O)NC yielded a growth, % of control at 10 µM [1] of 94%, a growth, % of control at 10 µM [2] of 92% and a growth, % of control at 10 µM [3] of 84%. It also gave a growth, % of control at 10 µM [4] of 98%, a growth, % of control at 10 µM [5] of 110% and a growth, % of control at 10 µM [6] of 107%. It also gave a growth, % of control at 10 µM [7] of 84%, a growth, % of control at 10 µM [8] of 98% and a growth, % of control at 10 µM [9] of 90%. It also gave a growth, % of control at 10 µM [10] of 103%, a growth, % of control at 10 µM [11] of 84% and a growth, % of control at 10 µM [12] of 98%. The growth, % of control at 10 µM [13] was 108%, the growth, % of control at 10 µM [14] was 97% and the growth, % of control at 10 µM [15] was 85%. The growth, % of control at 10 µM [16] was 95%, the growth, % of control at 10 µM [17] was 96% and the growth, % of control at 10 µM [18] was 98%. The growth, % of control at 10 µM [19] was 98%, the growth, % of control at 10 µM [20] was 87% and the growth, % of control at 10 µM [21] was 92%. The growth, % of control at 10 µM [22] was 98%, the growth, % of control at 10 µM [23] was 99% and the growth, % of control at 10 µM [24] was 96%. For the same molecule, the growth, % of control at 10 µM [25] was 95%, the growth, % of control at 10 µM [26] was 101% and the growth, % of control at 10 µM [27] was 94%. It also gave a growth, % of control at 10 µM [28] of 99%, a growth, % of control at 10 µM [29] of 111% and a growth, % of control at 10 µM [30] of 99%. It also gave a growth, % of control at 10 µM [31] of 100%, a growth, % of control at 10 µM [32] of 111% and a growth, % of control at 10 µM [33] of 91%. The growth, % of control at 10 µM [34] was 86%, the growth, % of control at 10 µM [35] was 93% and the growth, % of control at 10 µM [36] was 79%. It also gave a growth, % of control at 10 µM [37] of 97%, a growth, % of control at 10 µM [38] of 86% and a growth, % of control at 10 µM [39] of 106%. The growth, % of control at 10 µM [40] was 98%, the growth, % of control at 10 µM [41] was 92% and the growth, % of control at 10 µM [42] was 87%. For the same molecule, the growth, % of control at 10 µM [43] was 88%, the growth, % of control at 10 µM [44] was 100% and the growth, % of control at 10 µM [45] was 97%. It also gave a growth, % of control at 10 µM [46] of 97%, a growth, % of control at 10 µM [47] of 109% and a growth, % of control at 10 µM [48] of 138%. The growth, % of control at 10 µM [49] was 107%, the growth, % of control at 10 µM [50] was 101% and the growth, % of control at 10 µM [51] was 97%. It also gave a growth, % of control at 10 µM [52] of 80%, a growth, % of control at 10 µM [53] of 106% and a growth, % of control at 10 µM [54] of 87%. The growth, % of control at 10 µM [55] was 117%, the growth, % of control at 10 µM [56] was 94% and the growth, % of control at 10 µM [57] was 96%.
